What was measured:
Assay in all cases: cells
COLO-741 = type: functional, cell-based, Homo sapiens; settings: Homo sapiens, COLO-741
Description: SANGER: Inhibition of human COLO-741 cell growth in a cell viability assay.

CW-2 = type: functional, cell-based, Homo sapiens; settings: Homo sapiens, CW-2;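 also: growth inhibition of CW-2 cells, read out by a cell viability assay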
Description: SANGER: Inhibition of human CW-2 cell growth in a cell viability assay.

EFO-21 = type: functional, cell-based, Homo sapiens; settings: Homo sapiens, EFO-21;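 also: growth inhibition of EFO-21 cells measured with a viability assay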
Description: SANGER: Inhibition of human EFO-21 cell growth in a cell viability assay.

ES4 = type: functional, cell-based, Homo sapiens; settings: Homo sapiens, ES4;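 also: growth inhibition of human ES4 cells, read out by a cell viability assay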
Description: SANGER: Inhibition of human ES4 cell growth in a cell viability assay.

G-402 = type: functional, cell-based, Homo sapiens; settings: Homo sapiens, G-402
Description: SANGER: Inhibition of human G-402 cell growth in a cell viability assay.

HCC1569 = type: functional, cell-based, Homo sapiens; settings: Homo sapiens, HCC1569;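 also: growth inhibition of human HCC1569 cells, read out with a cell viability assay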
Description: SANGER: Inhibition of human HCC1569 cell growth in a cell viability assay.

HCC 2998 = type: functional, cell-based, Homo sapiens; settings: Homo sapiens, HCC 2998;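 also: growth inhibition of human HCC2998 cells, measured with a cell viability read-out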
Description: SANGER: Inhibition of human HCC2998 cell growth in a cell viability assay.

HD-MY-Z = type: functional, cell-based, Homo sapiens; settings: Homo sapiens, HD-MY-Z;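 also: growth inhibition of HD-MY-Z cells, read out with a cell viability assay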
Description: SANGER: Inhibition of human HD-MY-Z cell growth in a cell viability assay.

HOP-92 = type: functional, cell-based, Homo sapiens; settings: Homo sapiens, HOP-92;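 also: cell viability readout, with IC50 reflecting inhibition of HOP-92 cell growth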
Description: SANGER: Inhibition of human HOP-92 cell growth in a cell viability assay.

HTC-C3 = type: functional, cell-based, Homo sapiens; settings: Homo sapiens, HTC-C3;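 also: inhibition of cell growth, read out with a cell viability assay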
Description: SANGER: Inhibition of human HTC-C3 cell growth in a cell viability assay.

IGR-1 = type: functional, cell-based, Homo sapiens; settings: Homo sapiens, IGR-1;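 also: growth inhibition of human IGR-1 cells, read out with a cell viability assay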
Description: SANGER: Inhibition of human IGR-1 cell growth in a cell viability assay.

J82 = type: functional, cell-based; settings: Homo sapiens;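 also: growth inhibition of J82 cells, read out with a cell viability assay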
Description: SANGER: Inhibition of human J82 cell growth in a cell viability assay.

JAR = type: functional, cell-based, Homo sapiens; settings: Homo sapiens, JAR;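 also: growth inhibition of human JAR cells determined with a cell viability assay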
Description: SANGER: Inhibition of human JAR cell growth in a cell viability assay.

KYSE-150 cell line = type: functional, cell-based, Homo sapiens; settings: Homo sapiens, KYSE-150;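 also: growth inhibition of human KYSE-150 cells, read out with a cell viability assay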
Description: SANGER: Inhibition of human KYSE-150 cell growth in a cell viability assay.

LU-139 = type: functional, cell-based; settings: Homo sapiens
Description: SANGER: Inhibition of human LU-139 cell growth in a cell viability assay.

LXF-289 cell line = type: functional, cell-based, Homo sapiens; settings: Homo sapiens, LXF-289
Description: SANGER: Inhibition of human LXF-289 cell growth in a cell viability assay.

MDA-MB-175-VII = type: functional, cell-based, Homo sapiens; settings: Homo sapiens, MDA-MB-175-VII
ME-180 = type: functional, cell-based; settings: Homo sapiens;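 also: cell viability assay measuring growth inhibition of ME-180 cells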
Description: SANGER: Inhibition of human ME-180 cell growth in a cell viability assay.

MEG-01 = type: functional, cell-based; settings: Homo sapiens;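 also: growth inhibition of MEG-01 cells, read out by a cell viability assay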
Description: SANGER: Inhibition of human MEG-01 cell growth in a cell viability assay.

MIA PaCa-2 = type: functional, cell-based, Homo sapiens; settings: Homo sapiens, MIA PaCa-2;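 also: growth inhibition of MIA PaCa-2 cells, read out with a cell viability assay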
Description: SANGER: Inhibition of human MIA-PaCa-2 cell growth in a cell viability assay.

MOLT-4 = type: functional, cell-based; settings: Homo sapiens;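 also: growth inhibition of MOLT-4 cells, determined with a cell viability readout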
Description: SANGER: Inhibition of human MOLT-4 cell growth in a cell viability assay.

NCI-H1437 = type: functional, cell-based, Homo sapiens; settings: Homo sapiens, NCI-H1437;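 also: growth inhibition of human NCI-H1437 cells, read out by a cell viability assay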
Description: SANGER: Inhibition of human NCI-H1437 cell growth in a cell viability assay.

NCI-H441 = type: functional, cell-based; settings: Homo sapiens;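 also: growth inhibition of NCI-H441 cells, read out with a cell viability assay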
Description: SANGER: Inhibition of human NCI-H441 cell growth in a cell viability assay.

NCI-H446 = type: functional, cell-based; settings: Homo sapiens;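 also: growth inhibition of NCI-H446 cells determined by a cell viability assay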
Description: SANGER: Inhibition of human NCI-H446 cell growth in a cell viability assay.

NCI-H510A = type: functional, cell-based; settings: Homo sapiens;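 also: growth inhibition of NCI-H510A cells, read out with a cell viability assay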
Description: SANGER: Inhibition of human NCI-H510A cell growth in a cell viability assay.

NCI-H520 = type: functional, cell-based, Homo sapiens; settings: Homo sapiens, NCI-H520;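 also: growth inhibition of NCI-H520 cells, measured by a cell viability assay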
Description: SANGER: Inhibition of human NCI-H520 cell growth in a cell viability assay.

SNU1 = type: functional, cell-based; settings: Homo sapiens;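 also: growth inhibition of human NCI-SNU-1 cells, measured with a cell viability assay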
Description: SANGER: Inhibition of human NCI-SNU-1 cell growth in a cell viability assay.

SNU-5 = type: functional, cell-based; settings: Homo sapiens;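 also: cell viability readout used to measure growth inhibition in human NCI-SNU-5 cells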
Description: SANGER: Inhibition of human NCI-SNU-5 cell growth in a cell viability assay.

NOS-1 = type: functional, cell-based, Homo sapiens; settings: Homo sapiens, NOS-1;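 also: growth inhibition of the human NOS-1 cell line, read out with a cell viability assay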
Description: SANGER: Inhibition of human NOS-1 cell growth in a cell viability assay.

PA-1 = type: functional, cell-based, Homo sapiens; settings: Homo sapiens, PA-1;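 also: IC50 for suppression of PA-1 cell proliferation, determined with a cell viability read-out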
Description: SANGER: Inhibition of human PA-1 cell growth in a cell viability assay.

RCM-1 = type: functional, cell-based, Homo sapiens; settings: Homo sapiens, RCM-1;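 also: growth inhibition of the RCM-1 line, determined with a cell viability readout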
Description: SANGER: Inhibition of human RCM-1 cell growth in a cell viability assay.

RMG-I = type: functional, cell-based, Homo sapiens; settings: Homo sapiens, RMG-I;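 also: growth inhibition of human RMG-I cells, read out with a cell viability assay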
Description: SANGER: Inhibition of human RMG-I cell growth in a cell viability assay.

RPMI-8226 = type: functional, cell-based; settings: Homo sapiens
Description: SANGER: Inhibition of human RPMI-8226 cell growth in a cell viability assay.

Ramos-2G6-4C10 = type: functional, cell-based; settings: Homo sapiens;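 also: growth inhibition of the cell line, measured by a cell viability read-out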
Description: SANGER: Inhibition of human Ramos-2G6-4C10 cell growth in a cell viability assay.

SF-268 = type: functional, cell-based, Homo sapiens; settings: Homo sapiens, SF-268;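 also: growth inhibition of SF-268 cells determined with a cell viability assay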
Description: SANGER: Inhibition of human SF268 cell growth in a cell viability assay.

SW1990 = type: functional, cell-based, Homo sapiens; settings: Homo sapiens, SW1990;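 also: cell growth inhibition determined with a viability assay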
Description: SANGER: Inhibition of human SW1990 cell growth in a cell viability assay.

SW48 = type: functional, cell-based, Homo sapiens; settings: Homo sapiens, SW48;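 also: growth inhibition of SW48 cells, read out with a cell viability assay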
Description: SANGER: Inhibition of human SW48 cell growth in a cell viability assay.

SW780 = type: functional, cell-based, Homo sapiens; settings: Homo sapiens, SW780;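 also: growth inhibition of the cells, read out with a cell viability assay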
Description: SANGER: Inhibition of human SW780 cell growth in a cell viability assay.

T47D = type: functional, cell-based, Homo sapiens; settings: Homo sapiens, T47D;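 also: growth inhibition of human T47D cells, measured with a cell viability assay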
Description: SANGER: Inhibition of human T47D cell growth in a cell viability assay.

T98G = type: functional, cell-based, Homo sapiens; settings: Homo sapiens, T98G;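 also: growth inhibition of T98G cells, read out by a cell viability assay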
Description: SANGER: Inhibition of human T98G cell growth in a cell viability assay.

639-V = type: functional, cell-based, Homo sapiens; settings: Homo sapiens, 639-V;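 also: growth inhibition of 639-V cells, read out with a cell viability assay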
Description: SANGER: Inhibition of human 639-V cell growth in a cell viability assay.

A-375 = type: functional, cell-based, Homo sapiens; settings: Homo sapiens, A-375;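 also: growth inhibition of A375 cells, read out with a cell viability assay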
Description: SANGER: Inhibition of human A375 cell growth in a cell viability assay.

ACHN = type: functional, cell-based, Homo sapiens; settings: Homo sapiens, ACHN;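 also: cell viability read-out used to gauge how strongly growth of human ACHN cells is suppressed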
Description: SANGER: Inhibition of human ACHN cell growth in a cell viability assay.

BFTC-909 = type: functional, cell-based, Homo sapiens; settings: Homo sapiens, BFTC-909
Description: SANGER: Inhibition of human BFTC-909 cell growth in a cell viability assay.

BPH-1 = type: functional, cell-based, Homo sapiens; settings: Homo sapiens, BPH-1;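 also: cell viability assay measuring growth inhibition of human BPH-1 cells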
Description: SANGER: Inhibition of human BPH-1 cell growth in a cell viability assay.

CAKI-1 = type: functional, cell-based, Homo sapiens; settings: Homo sapiens, CAKI-1;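 also: growth inhibition of CAKI-1 cells, measured by a cell viability assay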
Description: SANGER: Inhibition of human CAKI-1 cell growth in a cell viability assay.

U-118-MG = type: functional, cell-based, Homo sapiens; settings: Homo sapiens, U-118-MG
Description: SANGER: Inhibition of human U-118-MG cell growth in a cell viability assay.

VA-ES-BJ = type: functional, cell-based, Homo sapiens; settings: Homo sapiens, VA-ES-BJ;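 also: growth inhibition of the VA-ES-BJ cell line, read out by a cell viability assay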
Description: SANGER: Inhibition of human VA-ES-BJ cell growth in a cell viability assay.

COLO-684 = type: functional, cell-based; settings: Homo sapiens
Description: SANGER: Inhibition of human COLO-684 cell growth in a cell viability assay.

Measured: IC50

CN(Cc1cnc2nc(N)nc(N)c2n1)c1ccc(C(=O)N[C@@H](CCC(=O)O)C(=O)O)cc1 [METHOTREXATE]
99.4 nM: MEG-01
101 nM: RPMI-8226
188 nM: JAR
162 nM: COLO-741
115 nM: KYSE-150 cell line
37.5 nM: COLO-684
85.3 nM: ACHN
21.2 nM: MOLT-4
79.5 nM: ES4
26.9 nM: Ramos-2G6-4C10
116 nM: SW780
7.51 nM: SNU1
> 200 nM: all other assays above
